Assay results from the NIST ThermoML archive (doi:10.1016/j.tca.2012.12.008).
± gives the expanded uncertainty stated by the source.

Experiments:
[1] = 101 kPa, Liquid; for viscosity: Capillary tube (Ostwald / Ubbelohde) method; for mass density: Vibrating tube method
[2] = xn = mol fraction of the nth substance listed; conditions: 101 kPa, Liquid; for viscosity: Capillary tube (Ostwald / Ubbelohde) method; for mass density: Vibrating tube method

Structure (SMILES) | viscosity ([1]; 298.15 K) | mass density ([1]; 298.15 K) | viscosity ([1]; 303.15 K) | mass density ([1]; 303.15 K) | viscosity ([1]; 308.15 K) | mass density ([1]; 308.15 K) | viscosity ([1]; 313.15 K) | mass density ([1]; 313.15 K) | further results
CCCCCC(C)O (stereo not drawn) [2-heptanol] | 5.003 ± 0.037 mPa·s | 813.18 ± 0.24 kg/m3 | 4.152 ± 0.031 mPa·s | 809.26 ± 0.24 kg/m3 | 3.478 ± 0.026 mPa·s | 805.01 ± 0.24 kg/m3 | 2.853 ± 0.022 mPa·s | 801.14 ± 0.24 kg/m3 | –
CCC(C)=O [butanone] + CCCC(C)O | – | – | – | – | – | – | – | – | viscosity ([2]; 298.15 K, x1 = 1): 0.381 ± 0.004 mPa·s; mass density ([2]; 298.15 K, x1 = 1): 799.48 ± 0.24 kg/m3; viscosity ([2]; 303.15 K, x1 = 1): 0.368 ± 0.004 mPa·s; mass density ([2]; 303.15 K, x1 = 1): 794.63 ± 0.24 kg/m3; viscosity ([2]; 308.15 K, x1 = 1): 0.352 ± 0.004 mPa·s; mass density ([2]; 308.15 K, x1 = 1): 789.9 ± 0.24 kg/m3; viscosity ([2]; 313.15 K, x1 = 1): 0.339 ± 0.004 mPa·s; mass density ([2]; 313.15 K, x1 = 1): 785.52 ± 0.24 kg/m3
CCC(C)O (stereo not drawn) [butan-2-ol] + CCC(C)=O | – | – | – | – | – | – | – | – | viscosity ([2]; 298.15 K, x2 = 0): 3.105 ± 0.023 mPa·s; mass density ([2]; 298.15 K, x2 = 0): 802.7 ± 0.24 kg/m3; viscosity ([2]; 303.15 K, x2 = 0): 2.597 ± 0.02 mPa·s; mass density ([2]; 303.15 K, x2 = 0): 798.3 ± 0.24 kg/m3; viscosity ([2]; 308.15 K, x2 = 0): 2.153 ± 0.016 mPa·s; mass density ([2]; 308.15 K, x2 = 0): 793.57 ± 0.24 kg/m3; viscosity ([2]; 313.15 K, x2 = 0): 1.734 ± 0.013 mPa·s; mass density ([2]; 313.15 K, x2 = 0): 789.15 ± 0.24 kg/m3
CCC(C)=O [butanone] + CCCCCC(C)O | – | – | – | – | – | – | – | – | viscosity ([2]; 298.15 K, x1 = 1): 0.381 ± 0.004 mPa·s; mass density ([2]; 298.15 K, x1 = 1): 799.48 ± 0.24 kg/m3; viscosity ([2]; 303.15 K, x1 = 1): 0.368 ± 0.004 mPa·s; mass density ([2]; 303.15 K, x1 = 1): 794.63 ± 0.24 kg/m3; viscosity ([2]; 308.15 K, x1 = 1): 0.352 ± 0.004 mPa·s; mass density ([2]; 308.15 K, x1 = 1): 789.9 ± 0.24 kg/m3; viscosity ([2]; 313.15 K, x1 = 1): 0.339 ± 0.004 mPa·s; mass density ([2]; 313.15 K, x1 = 1): 785.52 ± 0.24 kg/m3
CC(C)O [propan-2-ol] | 2.055 ± 0.016 mPa·s | 781.09 ± 0.24 kg/m3 | 1.788 ± 0.014 mPa·s | 776.77 ± 0.24 kg/m3 | 1.563 ± 0.012 mPa·s | 771.87 ± 0.24 kg/m3 | 1.379 ± 0.011 mPa·s | 767.37 ± 0.24 kg/m3 | –
CCC(C)=O [butanone] + CCCCC(C)O | – | – | – | – | – | – | – | – | viscosity ([2]; 298.15 K, x1 = 1): 0.381 ± 0.004 mPa·s; mass density ([2]; 298.15 K, x1 = 1): 799.48 ± 0.24 kg/m3; viscosity ([2]; 303.15 K, x1 = 1): 0.368 ± 0.004 mPa·s; mass density ([2]; 303.15 K, x1 = 1): 794.63 ± 0.24 kg/m3; viscosity ([2]; 308.15 K, x1 = 1): 0.352 ± 0.004 mPa·s; mass density ([2]; 308.15 K, x1 = 1): 789.9 ± 0.24 kg/m3; viscosity ([2]; 313.15 K, x1 = 1): 0.339 ± 0.004 mPa·s; mass density ([2]; 313.15 K, x1 = 1): 785.52 ± 0.24 kg/m3
CCC(C)O (stereo not drawn) [butan-2-ol] | 3.105 ± 0.023 mPa·s | 802.7 ± 0.24 kg/m3 | 2.597 ± 0.02 mPa·s | 798.3 ± 0.24 kg/m3 | 2.153 ± 0.016 mPa·s | 793.57 ± 0.24 kg/m3 | 1.734 ± 0.013 mPa·s | 789.15 ± 0.24 kg/m3 | –
CC(C)O [propan-2-ol] + CCC(C)=O | – | – | – | – | – | – | – | – | viscosity ([2]; 298.15 K, x2 = 0): 2.055 ± 0.016 mPa·s; mass density ([2]; 298.15 K, x2 = 0): 781.09 ± 0.24 kg/m3; viscosity ([2]; 303.15 K, x2 = 0): 1.788 ± 0.014 mPa·s; mass density ([2]; 303.15 K, x2 = 0): 776.77 ± 0.24 kg/m3; viscosity ([2]; 308.15 K, x2 = 0): 1.563 ± 0.012 mPa·s; mass density ([2]; 308.15 K, x2 = 0): 771.87 ± 0.24 kg/m3; viscosity ([2]; 313.15 K, x2 = 0): 1.379 ± 0.011 mPa·s; mass density ([2]; 313.15 K, x2 = 0): 767.37 ± 0.24 kg/m3
CCCCC(C)O (stereo not drawn) [2-hexanol] | 4.101 ± 0.031 mPa·s | 810.14 ± 0.24 kg/m3 | 3.411 ± 0.026 mPa·s | 806.13 ± 0.24 kg/m3 | 2.819 ± 0.021 mPa·s | 802.06 ± 0.24 kg/m3 | 2.219 ± 0.017 mPa·s | 797.96 ± 0.24 kg/m3 | –
CCCC(C)O (stereo not drawn) [pentan-2-ol] | 3.478 ± 0.026 mPa·s | 805.41 ± 0.24 kg/m3 | 2.801 ± 0.021 mPa·s | 801.21 ± 0.24 kg/m3 | 2.335 ± 0.018 mPa·s | 796.64 ± 0.24 kg/m3 | 1.993 ± 0.015 mPa·s | 792.51 ± 0.24 kg/m3 | –
CCC(C)=O [butanone] | 0.381 ± 0.004 mPa·s | 799.48 ± 0.24 kg/m3 | 0.368 ± 0.004 mPa·s | 794.63 ± 0.24 kg/m3 | 0.352 ± 0.004 mPa·s | 789.9 ± 0.24 kg/m3 | 0.339 ± 0.004 mPa·s | 785.52 ± 0.24 kg/m3 | –
